These results are taken from PubChem BioAssay AID328 (DTP/NCI, 2004).

This experiment relates to BDF1 mice, P388 leukemia ip, median survival T/C. The experiment is described as follows: NCI In Vivo Anticancer Drug Screen. Data for tumor model P388 Leukemia (intraperitoneal) in B6D2F1 (BDF1) mice. The conditions noted are these: endpoint: median survival time, higher = longer survival. The essentials: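 Compound-treated tumour-bearing mice were compared with vehicle-treated controls. Survival was recorded, and the value is the treated-group measurement divided by the control-group measurement (T/C).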

Where [1] appears, read: dose: 100.0 mg/kg/injection, schedule: Q04DX003 (ip), vehicle: Klucel (hydroxypropylcellulose) (HPC).
Where [2] appears, read: dose: 200.0 mg/kg/injection, schedule: Q04DX003 (ip), vehicle: Klucel (hydroxypropylcellulose) (HPC).
Where [3] appears, read: dose: 400.0 mg/kg/injection, schedule: Q04DX003 (ip), vehicle: Klucel (hydroxypropylcellulose) (HPC).
Where [4] appears, read: dose: 25.0 mg/kg/injection, schedule: Q01DX009 (ip), vehicle: saline.
Setting [5] is: dose: 50.0 mg/kg/injection, schedule: Q01DX009 (ip), vehicle: saline.
The mark [6] stands for this setting: dose: 100.0 mg/kg/injection, schedule: Q01DX009 (ip), vehicle: saline.
The mark [7] stands for this setting: dose: 12.5 mg/kg/injection, schedule: Q01DX009 (ip), vehicle: saline.
Where [8] appears, read: dose: 100.0 mg/kg/injection, schedule: Q01DX009 (ip), vehicle: saline with Tween-80.
[9] abbreviates: dose: 200.0 mg/kg/injection, schedule: Q01DX009 (ip), vehicle: saline with Tween-80.
Setting [10] is: dose: 50.0 mg/kg/injection, schedule: Q01DX009 (ip), vehicle: saline with Tween-80.
Setting [11] is: dose: 6.25 mg/kg/injection, schedule: Q01DX009 (ip), vehicle: saline with Tween-80.
The mark [12] stands for this setting: dose: 25.0 mg/kg/injection, schedule: Q01DX009 (ip), vehicle: saline with Tween-80.

Molecules are shown by their SMILES. “And” between values parts separate entries of the source, which are not always exact repeats. Equal entries are not always repeated. Toxic doses and inconclusive results are not listed.

On to `COc1cc2c(cc1NC(=O)N(CCCl)N=O)-c1ccccc1C2`, for which the T/C by setting is: (dose: 8.3 mg/kg/injection, schedule: Q04DX003 (ip), vehicle: Klucel (hydroxypropylcellulose) (HPC)) 108 % of control; (dose: 12.0 mg/kg/injection, schedule: Q04DX003 (ip), vehicle: Klucel (hydroxypropylcellulose) (HPC)) 113 % of control; (dose: 19.0 mg/kg/injection, schedule: Q04DX003 (ip), vehicle: Klucel (hydroxypropylcellulose) (HPC)) 154 % of control; (dose: 29.0 mg/kg/injection, schedule: Q04DX003 (ip), vehicle: Klucel (hydroxypropylcellulose) (HPC)) 154 % of control; (dose: 45.0 mg/kg/injection, schedule: Q04DX003 (ip), vehicle: Klucel (hydroxypropylcellulose) (HPC)) 172 % of control; (dose: 65.0 mg/kg/injection, schedule: Q04DX003 (ip), vehicle: Klucel (hydroxypropylcellulose) (HPC)) 190 % of control. Moreover, the T/C reads like this: under setting [1], 168 % of control; under setting [2], 172 % of control; under setting [3], 209 % of control.
Consider `C[n+]1ccccc1/C=C/c1cccc(O)c1`, for which the T/C (dose: 3.12 mg/kg/injection, schedule: Q01DX009 (ip), vehicle: Klucel (hydroxypropylcellulose) (HPC)) is 96 % of control; the T/C (dose: 6.25 mg/kg/injection, schedule: Q01DX009 (ip), vehicle: Klucel (hydroxypropylcellulose) (HPC)) is 96 % of control; the T/C (dose: 12.5 mg/kg/injection, schedule: Q01DX009 (ip), vehicle: Klucel (hydroxypropylcellulose) (HPC)) was 102 % of control; the T/C (dose: 25.0 mg/kg/injection, schedule: Q01DX009 (ip), vehicle: Klucel (hydroxypropylcellulose) (HPC)) was 102 % of control.
Take `N=C(N)N.O=S(=O)(O)[O][Al]1[O]S(=O)(=O)[O]1`: the T/C is 87 % of control under setting [4], 100 % of control under setting [5] and 95 % of control under setting [6].
Take `NC(CCC(=O)c1ccccn1)C(=O)O` (centres undefined): the T/C is 103 % of control under setting [7], 117 % of control under setting [4], 98 % of control under setting [5] and 117 % of control under setting [6].
Consider `Cc1ccc(S(=O)(=O)N(CCC(=N)N)C(C)C)cc1`, for which the T/C under setting [7] is 95 % of control; the T/C under setting [4] is 90 % of control; the T/C (dose: 25.0 mg/kg/injection, schedule: Q04DX003 (ip), vehicle: saline) is 104 % of control; the T/C under setting [5] was 105 % of control; the T/C (dose: 50.0 mg/kg/injection, schedule: Q04DX003 (ip), vehicle: saline) was 100 % of control.
`CC(O)C(NCNC(=O)C1=C(O)C2(O)C(=O)C3=C(O)c4c(O)cccc4C(C)(O)C3CC2C(N(C)C)C1=O)C(=O)O` (centres undefined): the T/C under setting [8] was 91 % of control; the T/C under setting [9] was 100 % of control; the T/C (dose: 400.0 mg/kg/injection, schedule: Q01DX009 (ip), vehicle: saline with Tween-80) is 87 % of control.
On to `ClCCOCCCl`, for which the T/C is, setting by setting: under setting [10], 115 % of control; under setting [8], 124 % of control.
Regarding `O=c1[nH]cn[nH]1`, the T/C (dose: 100.0 mg/kg/injection, schedule: Q01DX001 (ip), vehicle: saline sonified) is 122 % of control; the T/C (dose: 200.0 mg/kg/injection, schedule: Q01DX001 (ip), vehicle: saline sonified) is 95 % of control; the T/C (dose: 400.0 mg/kg/injection, schedule: Q01DX001 (ip), vehicle: saline sonified) was 90 % of control.
On to `CSc1cc(-c2ccc(Cl)cc2)s[s+]1`, for which the T/C is 104 % of control (dose: 3.12 mg/kg/injection, schedule: Q04DX003 (ip), vehicle: saline with Tween-80); 110 % of control under setting [11]; 111 % of control (dose: 6.25 mg/kg/injection, schedule: Q04DX003 (ip), vehicle: saline with Tween-80); 89 % of control (dose: 12.5 mg/kg/injection, schedule: Q01DX009 (ip), vehicle: saline with Tween-80); 109 % of control (dose: 12.5 mg/kg/injection, schedule: Q04DX003 (ip), vehicle: saline with Tween-80); 100 % of control under setting [12]. For the same compound, the T/C (dose: 25.0 mg/kg/injection, schedule: Q04DX003 (ip), vehicle: saline with Tween-80) was 108 % of control; the T/C under setting [10] was 91 % of control; the T/C (dose: 50.0 mg/kg/injection, schedule: Q04DX003 (ip), vehicle: saline with Tween-80) is 94 % of control.
As to `CCOC(=O)c1c[nH]c2nc(SC)nc(NC(C)=O)c2c1=O`, the T/C runs as follows: under setting [10], 102 % of control; under setting [8], 87 % of control; under setting [9], 89 % of control.
For `Nc1cc2ccccc2c(O)c1O`, the T/C is 100 % of control (dose: 75.0 mg/kg/injection, schedule: Q04DX003 (ip), vehicle: saline sonified); 111 % of control (dose: 150.0 mg/kg/injection, schedule: Q04DX003 (ip), vehicle: saline sonified); 94 % of control (dose: 300.0 mg/kg/injection, schedule: Q04DX003 (ip), vehicle: saline sonified).
Take `Cc1ccc(C(=S)NC(=O)NS(C)(=O)=O)cc1`: the T/C is 106 % of control (dose: 100.0 mg/kg/injection, schedule: Q01DX001 (ip), vehicle: saline with Tween-80); 105 % of control (dose: 200.0 mg/kg/injection, schedule: Q01DX001 (ip), vehicle: saline with Tween-80); 99 % of control (dose: 400.0 mg/kg/injection, schedule: Q01DX001 (ip), vehicle: saline with Tween-80).
On to `C[n+]1c(-c2cccc3ccccc23)c2cc([N+](=O)[O-])ccc2c2ccccc21`, for which the T/C is, setting by setting: (dose: 1.0 mg/kg/injection, schedule: Q04DX003 (ip), vehicle: water) 113 % of control; (dose: 2.0 mg/kg/injection, schedule: Q04DX003 (ip), vehicle: water) 104 % of control; (dose: 4.0 mg/kg/injection, schedule: Q01DX009 (ip), vehicle: water) 118 % of control; (dose: 4.0 mg/kg/injection, schedule: Q04DX003 (ip), vehicle: water) 115 % of control; (dose: 8.0 mg/kg/injection, schedule: Q04DX003 (ip), vehicle: water) 97 % of control and 108 % of control; (dose: 16.0 mg/kg/injection, schedule: Q04DX003 (ip), vehicle: water) 109 % of control. For the same compound, the T/C (dose: 32.0 mg/kg/injection, schedule: Q01DX009 (ip), vehicle: water) is 109 % of control and the T/C (dose: 32.0 mg/kg/injection, schedule: Q04DX003 (ip), vehicle: water) is 106 % of control.
On to `CC(=O)n1nc2c(c1CC(C)C)C(=O)C(Nc1ccccc1)=CC2=O`, for which the T/C by setting is: (dose: 100.0 mg/kg/injection, schedule: Q04DX002 (ip), vehicle: saline with Tween-80) 102 % of control; (dose: 200.0 mg/kg/injection, schedule: Q04DX002 (ip), vehicle: saline with Tween-80) 108 % of control; (dose: 400.0 mg/kg/injection, schedule: Q04DX002 (ip), vehicle: saline with Tween-80) 106 % of control.
Turning to `CCC(NC(N)=O)C(CC)NC(N)=O` (centres undefined), the T/C is, setting by setting: under setting [12], 106 % of control; under setting [10], 120 % of control and 123 % of control.
For `O=C1Nc2ccccc2S/C1=C\c1ccc(C(F)(F)F)cc1`, the T/C is, setting by setting: under setting [10], 115 % of control; under setting [8], 100 % of control; under setting [9], 110 % of control.
Consider `O=[N+]([O-])C(Br)(c1ccccc1)S(=O)(=O)Cc1ccccc1` (centres undefined), for which the T/C was 104 % of control under setting [1], 108 % of control under setting [2] and 108 % of control under setting [3].
Take `CCCCCCCCCCCCCCCCCC[N+](C)(C)C` (tested in a mixture with another compound): the T/C runs as follows: (dose: 1.0 mg/kg/injection, schedule: Q01DX009 (ip), vehicle: saline) 109 % of control; (dose: 2.0 mg/kg/injection, schedule: Q01DX009 (ip), vehicle: saline) 113 % of control; (dose: 4.0 mg/kg/injection, schedule: Q01DX009 (ip), vehicle: saline) 118 % of control.
In the case of `C=CCOCC1CO1` (centres undefined), the T/C was 99 % of control under setting [7]; 106 % of control under setting [4]; 100 % of control under setting [5]; 109 % of control under setting [6]; 117 % of control (dose: 200.0 mg/kg/injection, schedule: Q01DX009 (ip), vehicle: saline).
Take `OC(Nc1nccs1)C(Cl)(Cl)Cl` (centres undefined): the T/C was 104 % of control under setting [10], 110 % of control under setting [8] and 94 % of control under setting [9].
Regarding `CN(c1ccccc1)c1c2c(oc(=O)c1Cl)-c1ccccc1SC2`, the T/C (dose: 1.56 mg/kg/injection, schedule: Q01DX009 (ip), vehicle: saline with Tween-80) is 101 % of control; the T/C (dose: 3.13 mg/kg/injection, schedule: Q01DX009 (ip), vehicle: saline with Tween-80) was 97 % of control; the T/C under setting [11] was 91 % of control.
